Experimental data: article PMC10721898, “C5 methylation confers accessibility, stability and selectivity to picrotoxinin” (Nature Communications, 2023)
Where two headings read alike, the source gives them in different places.

Key:
rat GABAA ion channel = assay: Non-selective rat GABAA ion channel [3H]TBOB binding (antagonist radioligand) assay, rat cerebral cortex; conditions: [3H]TBOB displacement, n = 1
Procedure: The structurally privileged 5-methyl series was assayed for binding to both GABAA receptors (rat cortex membrane preparations) and RDL (expressed in Xenopus oocytes) and compared directly to the parent PXN (C5-H) series. The parallel series of PXN and 5MePXN analogs allowed us to interrogate the effect of the synthetically-enabling and stabilizing C5 methyl. […]
4. Rat GABAA receptors binding assay
Non-selective rat GABAA ion channel [3H] TBOB binding (Antagonist Radioligand) assay was conducted by Eurofins Pharma Discovery Service of Eurofins Cerep, France.
Compound binding was calculated as a % inhibition of the binding of the radioactive ly labeled ligand [3H] TBOB (t‐[3H]Butylbicycloorthobenzoate) for rat GABAA ion channels.9 A 20.0 mM stock solution was prepared in DMSO from each test compound to evaluate radioligand displacement of [3H] TBOB from rat cerebral cortex GABAA receptors at different concentrations.
The results are expressed as a percent of control specific binding measured specific binding*100 […]
and as a percent inhibition of control specific binding
100 − (measured specific binding*100) […]
obtained in the presence of the test compounds.
The IC50 values (concentration causing a half -maximal inhibition of control specific binding) and Hill coefficients (nH) were determined by non -linear regression analysis of th e competition curves generated with mean replicate values using Hill equation curve fitting […]
where Y = specific binding, A = left asymptote of the curve, D = right asymptote of the curve , C = compound concentration, C 50 = IC50, and nH = slope factor. This analysis was performed using software developed at Cerep (Hill software) and validated by comparison with data generated by th e commercial software SigmaPlot® 4.0 for Windows ® (© 1997 by SPSS Inc.).
The inhibition constants (K i) were calculated using the Cheng Prusoff equation where L = concentration of radioligand in the assay, and KD = affinity of the radioligand for the recept or. A scatchard plot is used to determine the K D.
Supplementary Table 8. IC50 values of test compound
(§1) Compound IC50 (µM) Compound IC50 (µΜ)

Drosophila RDL = biological target: T1, Drosophila RDL (Drosophila melanogaster, UniProt P25123); assay: RDL receptors assay: two-electrode voltage clamp electrophysiology in Xenopus oocytes; type: cell-based
T1 construct: expressed in transfected cells; host or cells: Xenopus oocytes (Ecocyte, Austin, TX) microinjected with capped cRNA
T1 sequence (P25123 45-606): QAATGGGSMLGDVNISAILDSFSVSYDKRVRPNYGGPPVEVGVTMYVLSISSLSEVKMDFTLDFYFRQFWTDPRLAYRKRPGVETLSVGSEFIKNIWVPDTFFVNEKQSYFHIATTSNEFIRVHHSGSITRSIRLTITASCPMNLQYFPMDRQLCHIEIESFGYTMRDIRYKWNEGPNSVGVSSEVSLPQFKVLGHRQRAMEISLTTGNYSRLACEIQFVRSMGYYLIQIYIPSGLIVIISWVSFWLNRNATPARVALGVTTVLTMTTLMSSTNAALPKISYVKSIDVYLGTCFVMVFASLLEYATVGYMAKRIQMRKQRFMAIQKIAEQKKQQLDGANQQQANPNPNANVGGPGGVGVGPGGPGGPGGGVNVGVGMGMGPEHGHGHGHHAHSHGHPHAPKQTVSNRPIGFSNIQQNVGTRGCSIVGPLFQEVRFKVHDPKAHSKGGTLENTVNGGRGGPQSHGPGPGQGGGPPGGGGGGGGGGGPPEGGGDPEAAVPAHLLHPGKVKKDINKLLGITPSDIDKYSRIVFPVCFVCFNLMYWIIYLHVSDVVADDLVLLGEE
Procedure: 5. RDL receptors binding assay
The Drosophila RDL sequence (NP_01261616.1) was cloned into the pGH19 backbone via Gibson assembly for capped cRNA synthesis using the T7 mMessage mMachine kit (Invitrogen). cRNA samples were stored at - 80 °C until use. Ready to inject Xenopus oocytes were obtained from Ecocyte (Austin, TX) and microinjected using a Nanoinject III (Drummond Scientific) with 4 nL of cRNA (1 μg/μL). The oocytes were then incubated at 16 °C in ND96 storage solution (93.5 mM NaCl, 2 mM KCl, 1.8 mM CaCl 2·2H2O, 2 mM MgCl 2·6H2O, 5 mM HEPES at pH 7.5). Recording were made 1 -6 days post injection.
Electrophysiology experiments were performed using an automated two -electrode voltage clamp set -up (Roboocyte 2, Mutlichannel Systems). Recording head were filled with 3M KCl and gave resistan ce of 100-2000 kΩ in medium. Membrane potential was held at -60 mV and current signal was sampled at 20 kHz.
Experiments were performed at room temperature using Modified Barth’s Saline (MBS) (88 mM NaCl, 1 mM KCl, 2.4 mM NaHCO 3, 15 mM HEPES, 0.3 mM Ca(NO3)2, 0.41 mM CaCl 2, and 0.82 mM MgSO 4·7H2O at pH 7.4). Oocytes were perfused with MBS at 5 mL/min in all assays. GABA and all compounds were dissolved in MBS and a 0.1% DMSO negative control was utilized to correct for any solvent effect.
Initial block potential of each compound was assessed utilizing a pre -incubation method (MBS (30 sec), 10 μM GABA (15 sec), MBS wash (60 sec), compound (60 sec), compound + 10 μM GABA (15 sec), compound (60 sec), compound + 10 μM GABA (15 sec), MBS wash (60 sec) with 10 μM of each test compound. The maximum signal of the second co -application was compared to the initial GABA response to determine the % block and then standardized against the corresponding value of the 0.1% DMSO control. Dose responses were performed for any compound showing >50% block in the initial test using 10, 1, and 0.1 μM. The IC50 values were fit using an inhibitor vs response 4 -parameter fit (GraphPad Prism 8.1.2).
Supplementary Table 9. IC50 values of test compound
as §1

RDL = conditions: cited from earlier work
GABAA and RDL receptors = tested on: GABAA and RDL receptors; set-up: method as in PMID 8982503; conditions: cited from earlier work
[1] = Supplementary Table 8 (5MePXN series)
[2] = block of 10 μM GABA response, pre-incubation, -60 mV, Supplementary Table 9 (5MePXN series), n = 4, read-out: IC50
[3] = Supplementary Table 8 (PXN series)
[4] = block of 10 μM GABA response, pre-incubation, -60 mV, Supplementary Table 9 (PXN series), n = 4, read-out: IC50

Molecule	IC50 (rat GABAA ion channel; [1]) [nM]	IC50 (Drosophila RDL; [2]) [nM]	IC50 (rat GABAA ion channel; [3]) [nM]	IC50 (Drosophila RDL; [4]) [nM]	other results
CC(C)(O)C1C2OC(=O)C1(C)C1(O)CC3OC34C(=O)OC2C41C (stereo not shown) [5MePTN]	> 200000	> 10000			
CC(C)(O)C1C2OC(=O)C1(C)C1(F)CC3OC34C(=O)OC2C41C (stereo not shown) [6F5MePTN]	> 200000	1550			
C=C(C)C1C2OC(=O)C1(C)C1(F)CC3OC34C(=O)OC2C41C (stereo not shown) [6F5MePXN]	14000	593			
CC(C)(F)C1C2OC(=O)C1(C)C1(F)CC3OC34C(=O)OC2C41C (stereo not shown) [6F12F5MePXN]	> 200000	994			
CC(C)(F)C1C2OC(=O)C1C1(F)CC3OC34C(=O)OC2C14C (stereo not shown) [6F12FPXN]			32000	2240	
CC(C)C1C2OC(=O)C1(C)C1(F)CC3OC34C(=O)OC2C41C (stereo not shown) [6FH5MePXN]	52000	2740			
CC(C)C1C2OC(=O)C1C1(F)CC3OC34C(=O)OC2C14C (stereo not shown) [6FHPXN]			6500	561	
CC(C)(O)C1C2OC(=O)C1C1(F)CC3OC34C(=O)OC2C14C (stereo not shown) [6FPTN]			56000	4920	
C=C(C)C1C2OC(=O)C1C1(F)CC3OC34C(=O)OC2C14C (stereo not shown) [6FPXN]			430	1050	reported activity at RDL (RDL): lose channel blocking ability
C=C(C)C1C2OC(=O)C1(C)C1(O)CC=C3C(=O)OC2C31C (stereo not shown) [8,9do5MePXN]	9200	4410			
C=C(C)C1C2OC(=O)C1C1(O)CC=C3C(=O)OC2C31C (stereo not shown) [8,9doPXN]			550	2600	
CC(C)(F)C1C2OC(=O)C1(C)C1(O)CC3OC34C(=O)OC2C41C (stereo not shown) [12F5MePXN]	100000	> 10000			
CC(C)(F)C1C2OC(=O)C1C1(O)CC3OC34C(=O)OC2C14C (stereo not shown) [12FPXN]			5400	> 10000	
CC(C)(C)C1C2OC(=O)C1(C)C1(O)CC3OC34C(=O)OC2C41C (stereo not shown) [12Me5MePXN]	7400	2880			
CC(C)(C)C1C2OC(=O)C1C1(O)CC3OC34C(=O)OC2C14C (stereo not shown) [12MePXN]			310	676	
CC1(C2C3OC(=O)C2(C)C2(O)CC4OC45C(=O)OC3C52C)CC1 (stereo not shown) [Cyp5MePXN]	7700	1620			
CC1(C2C3OC(=O)C2C2(O)CC4OC45C(=O)OC3C25C)CC1 (stereo not shown) [CypPXN]			390		IC50 (Drosophila RDL): 693 nM
CC(C)C1C2OC(=O)C1(C)C1(O)CC3OC34C(=O)OC2C41C (stereo not shown) [H5MePXN]	23000	> 10000			
CC(C)C1C2OC(=O)C1C1(O)CC3OC34C(=O)OC2C14C (stereo not shown) [HPXN]			1000		IC50 (Drosophila RDL): 1080 nM
CC(C)(O)[C@@H]1[C@H]2OC(=O)[C@@H]1[C@]1(O)C[C@H]3O[C@]34C(=O)O[C@H]2[C@]14C [PTN, picrotin, reference compound]			54000		reported activity at RDL (RDL): inactivity; IC50 (Drosophila RDL): 834 nM
picrodendrin O					selectivity index over GABAA (GABAA and RDL receptors): 76 fold
